{"source": "patent US12636370B2", "about": "“Combination therapy for treatment of cancer” (Institute For Cancer Research, priority 2019, dated 2026)", "type_in_all_cases": "cell-based", "key": {"OVCAR8 cells [1]": {"test_system": "OVCAR8 cells", "experiment": "CellTiter-Glo cell viability, OVCAR8 parental cells", "details": "dose escalation, 5 days"}, "[2]": {"test_system": "BET proteins (BRD2, BRD3, BRD4)", "experiment": "Western blot of BET protein levels, OVCAR8 parental cells"}, "OVCAR8 cells [3]": {"test_system": "OVCAR8 cells", "experiment": "Single-run proteome analysis and RNA-seq, OVCAR8 cells", "details": "48 hours, single-run proteome analysis", "method": "Enrichment maps of pathways repressed by short-term BBD generated from single-run proteome profiles of OVCAR8 cells treated with BBDs (MZ1 or ARV825) for 48 hours were prepared (data not shown). Statistical differences in protein log 2 LFQ z-scores comparing BBDs or BBIs to control treated cells was determined by paired T-Test Benjamini-Hochberg adjusted p values at FDR of <0.05 using Perseus Software. […] Enrichment maps were generated in Cytoscape using the Enrichment Map app v2.2.1. […] Statistical differences in protein log 2 LFQ z-scores comparing BBDs or BBIs to control treated cells was determined."}, "[4]": {"test_system": "translation markers, RNA pol II, MYC", "experiment": "Western blot of translation, BRD4-targets and MYC signaling, OVCAR8 cells", "details": "500 nM, 48 hours"}, "kinome": {"test_system": "kinome", "experiment": "MIB-MS kinome profiling, OVCAR8 cells", "details": "48 hours"}, "[5]": {"test_system": "RTKs, EGFR, ERBB2, ERBB3, FGFR1, and IGF1R", "experiment": "Western blot of kinase (RTK) protein levels, OVCAR8 cells", "details": "500 nM, 48 hours"}, "[6]": {"test_system": "RTKs FGFR1, FGFR2, FGFR3, IGF1R and ERBB4", "experiment": "Western blot of RTK protein levels, KURAMOCHI and COV362 cells", "details": "500 nM, 48 hours"}, "OVCAR8 MZ1-R cells": {"test_system": "OVCAR8 MZ1-R cells", "experiment": "CellTiter-Glo cell viability, OVCAR8 MZ1-R cells", "details": "OVCAR8 MZ1-R, escalating doses, 5 days"}, "OVCAR8 ARV-R cells [7]": {"test_system": "OVCAR8 ARV-R cells", "experiment": "CellTiter-Glo cell viability, OVCAR8 ARV-R cells", "details": "escalating doses, 5 days"}, "OVCAR8 JQ1-R cells [8]": {"test_system": "OVCAR8 JQ1-R cells", "experiment": "CellTiter-Glo cell viability, OVCAR8 JQ1-R cells", "details": "escalating doses, 5 days"}, "[9]": {"test_system": "BET proteins (BRD2, BRD3, BRD4)", "experiment": "Western blot of BET proteins and BRD4 targets, OVCAR8 MZ1-R cells", "details": "Western blot"}, "[10]": {"test_system": "BET proteins (BRD2, BRD3, BRD4)", "experiment": "Western blot of BET proteins, OVCAR8 ARV-R cells"}, "BET proteins, FOSL1, MYC": {"test_system": "BET proteins, FOSL1, MYC", "experiment": "Western blot of BET proteins and BRD4 targets, JQ1-R cells"}, "OVCAR8 ARV-R cells [11]": {"test_system": "OVCAR8 ARV-R cells", "experiment": "Apoptosis by cleaved PARP Western blot, OVCAR8 ARV-R cells"}, "OVCAR8 JQ1-R cells [12]": {"test_system": "OVCAR8 JQ1-R cells", "experiment": "Apoptosis by cleaved PARP Western blot, OVCAR8 JQ1-R cells"}, "PEO1 JQ1-R cells": {"test_system": "PEO1 JQ1-R cells", "experiment": "CellTiter-Glo cell viability, PEO1 JQ1-R cells", "details": "escalating doses, 5 days"}, "[13]": {"test_system": "KURAMOCHI, COV362 and OVCAR5 MZ1-R cells", "experiment": "CellTiter-Glo cell viability, KURAMOCHI, COV362 and OVCAR5 MZ1-R cells", "details": "COV362 and OVCAR5, escalating doses, 5 days"}, "[14]": {"test_system": "BET proteins (BRD2, BRD4)", "experiment": "Western blot of BET proteins, KURAMOCHI, COV362 and OVCAR5 MZ1-R cells"}, "OVSAHO cells": {"test_system": "OVSAHO cells", "experiment": "Combination treatment of OVSAHO cells", "details": "BRD4 overexpressing HGSOC cell line OVSAHO"}, "SW48 (KRAS WT) cells": {"test_system": "SW48 (KRAS WT) cells", "experiment": "Cell-Titer Glo cell viability, SW48 (KRAS WT) cells", "method": "(§1) K-ras mutations promote resistance to BET protein degraders that can be overcome by MTORC1 inhibitors. Briefly, isogenic SW48 colorectal cancer cells expressing wild-type or mutant (G12D) K-ras were treated with increasing doses of MZ1 and cell viability was assessed. Expression of K-ras mutants promote resistance to MZ1 therapy (FIG. 18, Panel A). Immunoblot analysis depicts activation of translation by forced expression of K-ras G12D mutants in SW48 cells (FIG. 18, Panel B). SW48 cells expressing wild-type or K-ras G12D mutants were treated with DMSO, 2 μM RAD001, increasing doses of MZ1 or 2 μM RAD001+increasing doses of MZ1 for 4 hours and BRD4 protein assessed by Western blot. A Cell-Titer Glo assay was performed for cell viability of SW48 (KRAS G12D) cell lines treated with increasing concentrations of RAD001, MZ1 or the combination of RAD001 and MZ1 and cultured for 120 hours. Data were analyzed as % cell viability of DMSO control, presented as means of 3 independent assays. […] Data were analyzed as % cell viability of DMSO control, presented as means of 3 independent assays. […]"}, "SW48 (KRAS G12D) cells": {"test_system": "SW48 (KRAS G12D) cells", "experiment": "Cell-Titer Glo cell viability, SW48 (KRAS G12D) cells", "method": "as §1"}, "BRD4": {"target": "T1, BRD4 (Homo sapiens, UniProt O60885)", "T1 construct": "endogenous in cells", "experiment": "Western blot of BRD4 protein, SW48 K-ras G12D cells", "details": "4 hours", "method": "as §1"}}}
{"smiles": "Cc1ncsc1-c1ccc(CNC(=O)[C@@H]2C[C@@H](O)CN2C(=O)[C@@H](NC(=O)COCCOCCOCCNC(=O)C[C@@H]2N=C(c3ccc(Cl)cc3)c3c(sc(C)c3C)-n3c(C)nnc32)C(C)(C)C)cc1", "note": "[MZ1]", "values": [{"measurement": "GI50", "setting": "OVCAR8 cells [1]", "value": 142, "unit": "nM"}, {"measurement": "BET protein levels", "setting": "[2]", "value": "degraded BET proteins in a concentration-dependent manner"}, {"measurement": "global protein level changes", "setting": "OVCAR8 cells [3]", "value": "uniquely downregulated proteins involved in ribosome and translation signaling"}, {"measurement": "MYC protein levels", "setting": "[4]", "value": "reduced MYC protein levels"}, {"measurement": "phosphorylation of translation markers", "setting": "[4]; relative to cis-MZ1 or JQ1", "value": "distinctly reduced phosphorylation of FOX01/3 (T24/32), P70S6 Kinase (T389), pEIF4E (S209) and p4EBP1 (T37/46)"}, {"measurement": "kinase MIB-binding", "setting": "kinome", "value": "uniquely increased MIB-binding of INSR, CDK7, EPHA4 and EPHA2"}, {"measurement": "RTK protein levels", "setting": "[5]", "value": "MZ1-specific reduction of RTKs, EGFR, ERBB2, ERBB3, FGFR1, and IGF1R"}, {"measurement": "RTK protein levels", "setting": "[6]", "value": "downregulation of RTKs protein levels such as FGFR1, FGFR2, FGFR3, IGF1R and ERBB4"}, {"measurement": "cell viability of MZ1-R cells compared with parental cells", "setting": "OVCAR8 MZ1-R cells", "value": "rightward shift"}, {"measurement": "cell viability of ARV-R cells compared with parental cells", "setting": "OVCAR8 ARV-R cells [7]", "value": "failed to reduce BET proteins, block growth or induce apoptosis"}, {"measurement": "cell viability of JQ1-R cells", "setting": "OVCAR8 JQ1-R cells [8]", "value": "inhibited cell viability"}, {"measurement": "BET protein levels", "setting": "[9]", "value": "insufficient to degrade BRD2, BRD3 or BRD4"}, {"measurement": "BET protein levels", "setting": "[10]", "value": "failed to reduce BET proteins, block growth or induce apoptosis"}, {"measurement": "BET protein levels", "setting": "BET proteins, FOSL1, MYC", "value": "degraded BET proteins"}, {"measurement": "BRD4 target (FOSL1, MYC) protein levels", "setting": "BET proteins, FOSL1, MYC", "value": "reduced MYC/FOSL1 protein levels"}, {"measurement": "apoptosis", "setting": "OVCAR8 ARV-R cells [11]", "value": "failed to reduce BET proteins, block growth or induce apoptosis"}, {"measurement": "apoptosis", "setting": "OVCAR8 JQ1-R cells [12]", "value": "induced apoptosis"}, {"measurement": "cell killing / viability", "setting": "PEO1 JQ1-R cells", "value": "can be killed by treatment with BET PROTAC MZ1"}, {"measurement": "cell viability / growth of MZ1-R cells compared with parental cells", "setting": "[13]", "value": "rightward shift"}, {"measurement": "BET protein levels", "setting": "[14]", "value": "failed to mediated degradation of BET proteins"}, {"measurement": "dose sufficient to induce sensitivity towards GSK529A, lapatinib or RAD001", "setting": "OVSAHO cells", "value": 10, "unit": "nM"}, {"measurement": "inhibition of viability", "setting": "SW48 (KRAS WT) cells; SW48 K-Ras WT cells, single agent, low concentrations", "value": "> 50", "unit": "%"}, {"measurement": "GI50", "setting": "SW48 (KRAS WT) cells; SW48 parental (wild-type K-Ras) cells", "value": 0.63, "unit": "nM"}, {"measurement": "GI50", "setting": "SW48 (KRAS G12D) cells; SW48 cells harboring K-Ras G12D mutation", "value": 63, "unit": "nM"}, {"measurement": "shift in GI50, K-Ras mutant vs parental cells", "setting": "SW48 (KRAS G12D) cells; SW48 isogenic cells", "value": 10, "unit": "fold"}, {"measurement": "BRD4 degradation", "setting": "BRD4", "value": "impaired the degradation of BRD4"}]}
